Data set [1] concerns NCI-H69 SCLC (small cell lung cancer) tumors. Description: H69 tumor DM-1 levels by LC/MS-MS. In kind it is in vivo, mice. The following applies: 24 hour time point; dosed at 1 mg/kg (conjugates, nanoparticles) or 0.4 mg/kg for DM-1. Here is the method:
To examine the ability of conjugates of the present invention to accumulate in tumors, a murine cancer model was used. All mice were treated in accordance with the OLAW Public Health Service Policy on Human Care and Use of Laboratory Animals and the ILAR Guide for the Care and Use of Laboratory Animals. All in vivo studies were conducted following the protocols approved by the Blend Therapeutics Institutional Animal Care and Use Committee. Animals were inoculated with 2.5×10{circumflex over (0)}6 NCI-H69 SCLC (small cell lung cancer) cells in 1:1 RPMI 1640 (Invitrogen, Carlsbad, Calif.)/Matrigel® (BD Biosciences, San Jose, Calif.) via subcutaneous injection to the right flank. Tumors were allowed to reach an approximate volume of ˜500 mm3. Animals were then randomized into treatment groups of 3 animals per time point and were dosed at 1 mg/kg (10% propylene glycol in water for injection for free conjugates, or 10% sucrose for nanoparticles), or 0.4 mg/kg for DM-1 (10% propylene glycol in water for injection). The 24 hour time point was used as a benchmark across conjugates.
Tumor DM-1 levels were determined by liquid chromatography mass spectrometry (LC/MS-MS). Four volumes of 5 mM 6-maleimidohexanoic acid to 1 part tumor v/w was added and homogenized for about 10-15 seconds with a handheld homogenizer. 10 μL of 500 mM Tris(2-carboxyethyl)phosphine was added to 100 uL of tumor homogenate, mixed well and incubated at room temperature for about 5-15 min. 200-300 uL of acetonitrile was used to precipitate proteins in tumor homogenate, samples were centrifuged for 5 min, and supernatant was injected onto LC/MS-MS system for DM-1 analysis.

Data set [2] deals with NCI-H524 (ATCC) human lung cancer cells. It is filed as cell-based. The following applies: Table 15. A digest of the protocol: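 NCI-H524 cells at 5,000/well were exposed to conjugate for 2 h from 20 μM top dose (ten-point, three-fold dilutions), washed, then grown a further 70 h. For competition, cells were pretreated 30 min with 100 μM octreotide. CellTiter Glo readout; % inhibition vs vehicle; four-parameter IC50.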

Setting [3] is: treated 2 hours, further incubated 70 hours, read-out: H524 IC50.
[4] abbreviates: read-out: H524 IC50+ 100 uM octreotide, 100 μM octreotide for 30 min, then conjugate 2 hours, 70 hours incubation.

pIC50: −log10 of the molar value. Where two headings read alike, the source gives them in different places.

A word on the pIC50: it is the IC50 on a negative log10 scale, so that one unit is a factor of ten.

Consider `COc1cc2cc(c1Cl)N(C)C(=O)C[C@H](OC(=O)[C@H](C)N(C)C(=O)CCSSCCNC(=O)CC[C@H]1C(=O)N[C@@H](Cc3ccc(O)cc3)C(=O)N[C@H](Cc3c[nH]c4ccccc34)C(=O)N[C@@H](CCCCN)C(=O)N[C@@H]([C@@H](C)O)C(=O)N[C@@H](Cc3ccccc3)C(=O)N1C)[C@]1(C)O[C@H]1[C@H](C)[C@@H]1C[C@@](O)(NC(=O)O1)[C@H](OC)/C=C/C=C(\C)C2` [Conjugate 14], for which, in data set [1], the “H69 tumor DM-1 levels” value came out at 70.1 nM. For the same compound, the results for the pIC50 in data set [2] (setting [3]) and in data set [2] (setting [4]) were 6.53 and 6.06, respectively.

With `COc1cc2cc(c1Cl)N(C)C(=O)C[C@H](OC(=O)[C@H](C)N(C)C(=O)CCSSC[C@H](NC(=O)CC[C@H]1C(=O)N[C@@H](Cc3ccc(O)cc3)C(=O)N[C@H](Cc3c[nH]c4ccccc34)C(=O)N[C@@H](CCCCN)C(=O)N[C@@H]([C@@H](C)O)C(=O)N[C@@H](Cc3ccccc3)C(=O)N1C)C(=O)NC(C)(C)CC(C)(C)C)[C@]1(C)O[C@H]1[C@H](C)[C@@H]1C[C@@](O)(NC(=O)O1)[C@H](OC)/C=C/C=C(\C)C2` [Conjugate 16], in data set [1], the “H69 tumor DM-1 levels” value was 96.4 nM. The pIC50 is 6.65 in data set [2] (setting [3]) and 6.40 in data set [2] (setting [4]).

As for `COc1cc2cc(c1Cl)N(C)C(=O)C[C@H](OC(=O)[C@H](C)N(C)C(=O)CCSSCCC(=O)NCCCOCCOCCOCCCNC(=O)CC[C@H]1C(=O)N[C@@H](Cc3ccc(O)cc3)C(=O)N[C@H](Cc3c[nH]c4ccccc34)C(=O)N[C@@H](CCCCN)C(=O)N[C@@H]([C@@H](C)O)C(=O)N[C@@H](Cc3ccccc3)C(=O)N1C)[C@]1(C)O[C@H]1[C@H](C)[C@@H]1C[C@@](O)(NC(=O)O1)[C@H](OC)/C=C/C=C(\C)C2` [Conjugate 18], in data set [1], the “H69 tumor DM-1 levels” value stood at 86.3 nM. For the same compound, the pIC50 is 5.83 in data set [2] (setting [3]) and 5.67 in data set [2] (setting [4]).

Regarding `CCCCN(CCSSCCC(=O)N(C)[C@@H](C)C(=O)O[C@H]1CC(=O)N(C)c2cc(cc(OC)c2Cl)C/C(C)=C/C=C/[C@@H](OC)[C@@]2(O)C[C@H](OC(=O)N2)[C@@H](C)[C@@H]2O[C@@]12C)C(=O)CC[C@H]1C(=O)N[C@@H](Cc2ccc(O)cc2)C(=O)N[C@H](Cc2c[nH]c3ccccc23)C(=O)N[C@@H](CCCCN)C(=O)N[C@@H]([C@@H](C)O)C(=O)N[C@@H](Cc2ccccc2)C(=O)N1C` [Conjugate 22], the “H69 tumor DM-1 levels” value in data set [1] worked out at 145 nM. The negative logarithm of the IC50 (pIC50) in data set [2] (setting [3]) is 6.48; in data set [2] (setting [4]) it was 6.13.

Consider `COc1cc2cc(c1Cl)N(C)C(=O)C[C@H](OC(=O)[C@H](C)N(C)C(=O)CCSSCCNC(=O)[C@@H](NC(=O)[C@@H]1CSSC[C@H](NC(=O)[C@H](N)Cc3ccccc3)C(=O)N[C@@H](Cc3ccc(O)cc3)C(=O)N[C@H](Cc3c[nH]c4ccccc34)C(=O)N[C@@H](CCCCN)C(=O)N[C@@H]([C@@H](C)O)C(=O)N1)[C@@H](C)O)[C@]1(C)O[C@H]1[C@H](C)[C@@H]1C[C@@](O)(NC(=O)O1)[C@H](OC)/C=C/C=C(\C)C2` [Conjugate 35], for which the “H69 tumor DM-1 levels” value in data set [1] was 23.2 nM. The negative logarithm of the IC50 (pIC50) is 6.60 in data set [2] (setting [3]) and 6.00 in data set [2] (setting [4]).

In the case of `CCCCCCCCN[C@H](Cc1ccccc1)C(=O)N[C@H]1CSSC[C@@H](C(=O)N[C@H](C(=O)NCCSSCCC(=O)N(C)[C@@H](C)C(=O)O[C@H]2CC(=O)N(C)c3cc(cc(OC)c3Cl)C/C(C)=C/C=C/[C@@H](OC)[C@@]3(O)C[C@H](OC(=O)N3)[C@@H](C)[C@@H]3O[C@@]23C)[C@@H](C)O)NC(=O)[C@H]([C@@H](C)O)NC(=O)[C@H](CCCCN)NC(=O)[C@@H](Cc2c[nH]c3ccccc23)NC(=O)[C@H](Cc2ccc(O)cc2)NC1=O` [Conjugate 55], the “H69 tumor DM-1 levels” value in data set [1] was determined as 95.3 nM. Moreover, the pIC50 is 7.33 in data set [2] (setting [3]) and 6.40 in data set [2] (setting [4]).

`COc1cc2cc(c1Cl)N(C)C(=O)C[C@H](OC(=O)[C@H](C)N(C)C(=O)CCSSC[C@H](NC(=O)[C@@H]1CSSC[C@H](NC(=O)[C@H](N)Cc3ccccc3)C(=O)N[C@@H](Cc3ccc(O)cc3)C(=O)N[C@H](Cc3c[nH]c4ccccc34)C(=O)N[C@@H](CCCCN)C(=O)N[C@@H]([C@@H](C)O)C(=O)N1)C(N)=O)[C@]1(C)O[C@H]1[C@H](C)[C@@H]1C[C@@](O)(NC(=O)O1)[C@H](OC)/C=C/C=C(\C)C2` [Conjugate 57]: in data set [1], the “H69 tumor DM-1 levels” value came to 243 nM. For the same compound, the pIC50 is 6.87 in data set [2] (setting [3]) and 5.78 in data set [2] (setting [4]).

On to `COc1cc2cc(c1Cl)N(C)C(=O)C[C@H](OC(=O)[C@H](C)N(C)C(=O)CCSSCCCN[C@H](Cc1ccccc1)C(=O)N[C@H]1CSSC[C@@H](C(=O)N[C@H](C(=O)O)[C@@H](C)O)NC(=O)[C@H]([C@@H](C)O)NC(=O)[C@H](CCCCN)NC(=O)[C@@H](Cc3c[nH]c4ccccc34)NC(=O)[C@H](Cc3ccc(O)cc3)NC1=O)[C@]1(C)O[C@H]1[C@H](C)[C@@H]1C[C@@](O)(NC(=O)O1)[C@H](OC)/C=C/C=C(\C)C2` [Conjugate 80], for which the “H69 tumor DM-1 levels” value in data set [1] came to 91.2 nM. For the same compound, the pIC50 in data set [2] (setting [3]) was 6.82; in data set [2] (setting [4]) it was 6.80.

`COc1cc2cc(c1Cl)N(C)C(=O)C[C@H](OC(=O)[C@H](C)N(C)C(=O)CCSSCCOc1ccc(C[C@@H](N)C(=O)N[C@H]3CSSC[C@@H](C(=O)N[C@H](C(=O)O)[C@@H](C)O)NC(=O)[C@H]([C@@H](C)O)NC(=O)[C@H](CCCCN)NC(=O)[C@@H](Cc4c[nH]c5ccccc45)NC(=O)[C@H](Cc4ccc(O)cc4)NC3=O)cc1)[C@]1(C)O[C@H]1[C@H](C)[C@@H]1C[C@@](O)(NC(=O)O1)[C@H](OC)/C=C/C=C(\C)C2` [Conjugate 111]: the “H69 tumor DM-1 levels” value in data set [1] is listed as 82.6 nM. In addition, the figures for the pIC50 in data set [2] (setting [3]) and in data set [2] (setting [4]) were 6.91 and 6.13, respectively.

On to `COc1cc2cc(c1Cl)N(C)C(=O)C[C@H](OC(=O)[C@H](C)N(C)C(=O)CCSSCCC(=O)NCc1ccc(C[C@@H](N)C(=O)N[C@H]3CSSC[C@@H](C(=O)N[C@H](C(=O)O)[C@@H](C)O)NC(=O)[C@H]([C@@H](C)O)NC(=O)[C@H](CCCCN)NC(=O)[C@@H](Cc4c[nH]c5ccccc45)NC(=O)[C@H](Cc4ccc(O)cc4)NC3=O)cc1)[C@]1(C)O[C@H]1[C@H](C)[C@@H]1C[C@@](O)(NC(=O)O1)[C@H](OC)/C=C/C=C(\C)C2` [Conjugate 115], for which the “H69 tumor DM-1 levels” value in data set [1] came out at 37.1 nM. For the same compound, the pIC50 in data set [2] (setting [3]) was 6.49; in data set [2] (setting [4]) it was 5.83.

Turning to `COc1cc2cc(c1Cl)N(C)C(=O)C[C@H](OC(=O)[C@H](C)N(C)C(=O)CCS)[C@]1(C)O[C@H]1[C@H](C)[C@@H]1C[C@@](O)(NC(=O)O1)[C@H](OC)/C=C/C=C(\C)C2` [DM-1, reference compound], in data set [1], the “H69 tumor DM-1 levels” value worked out at 31.6 nM. For the same compound, the pIC50 in data set [2] (setting [3]) and in data set [2] (setting [4]) was 7.05 in each case.

The values are drawn from patent US10322191B2, “Targeted conjugates and particles and formulations thereof” (TARVEDA THERAPEUTICS, INC., priority 2014, dated 2019).
